Our source for the IC50 values is article PMC10590419, “Structural and mechanistic insights into the inhibition of respiratory syncytial virus polymerase by a non-nucleoside inhibitor” (Communications Biology, 2023).

The target of assay [1] is T1, Human DNA polymerase alpha (Homo sapiens, UniProt P09884).
T1 construct: purchased CHIMERx
T1 sequence (P09884 1-1462): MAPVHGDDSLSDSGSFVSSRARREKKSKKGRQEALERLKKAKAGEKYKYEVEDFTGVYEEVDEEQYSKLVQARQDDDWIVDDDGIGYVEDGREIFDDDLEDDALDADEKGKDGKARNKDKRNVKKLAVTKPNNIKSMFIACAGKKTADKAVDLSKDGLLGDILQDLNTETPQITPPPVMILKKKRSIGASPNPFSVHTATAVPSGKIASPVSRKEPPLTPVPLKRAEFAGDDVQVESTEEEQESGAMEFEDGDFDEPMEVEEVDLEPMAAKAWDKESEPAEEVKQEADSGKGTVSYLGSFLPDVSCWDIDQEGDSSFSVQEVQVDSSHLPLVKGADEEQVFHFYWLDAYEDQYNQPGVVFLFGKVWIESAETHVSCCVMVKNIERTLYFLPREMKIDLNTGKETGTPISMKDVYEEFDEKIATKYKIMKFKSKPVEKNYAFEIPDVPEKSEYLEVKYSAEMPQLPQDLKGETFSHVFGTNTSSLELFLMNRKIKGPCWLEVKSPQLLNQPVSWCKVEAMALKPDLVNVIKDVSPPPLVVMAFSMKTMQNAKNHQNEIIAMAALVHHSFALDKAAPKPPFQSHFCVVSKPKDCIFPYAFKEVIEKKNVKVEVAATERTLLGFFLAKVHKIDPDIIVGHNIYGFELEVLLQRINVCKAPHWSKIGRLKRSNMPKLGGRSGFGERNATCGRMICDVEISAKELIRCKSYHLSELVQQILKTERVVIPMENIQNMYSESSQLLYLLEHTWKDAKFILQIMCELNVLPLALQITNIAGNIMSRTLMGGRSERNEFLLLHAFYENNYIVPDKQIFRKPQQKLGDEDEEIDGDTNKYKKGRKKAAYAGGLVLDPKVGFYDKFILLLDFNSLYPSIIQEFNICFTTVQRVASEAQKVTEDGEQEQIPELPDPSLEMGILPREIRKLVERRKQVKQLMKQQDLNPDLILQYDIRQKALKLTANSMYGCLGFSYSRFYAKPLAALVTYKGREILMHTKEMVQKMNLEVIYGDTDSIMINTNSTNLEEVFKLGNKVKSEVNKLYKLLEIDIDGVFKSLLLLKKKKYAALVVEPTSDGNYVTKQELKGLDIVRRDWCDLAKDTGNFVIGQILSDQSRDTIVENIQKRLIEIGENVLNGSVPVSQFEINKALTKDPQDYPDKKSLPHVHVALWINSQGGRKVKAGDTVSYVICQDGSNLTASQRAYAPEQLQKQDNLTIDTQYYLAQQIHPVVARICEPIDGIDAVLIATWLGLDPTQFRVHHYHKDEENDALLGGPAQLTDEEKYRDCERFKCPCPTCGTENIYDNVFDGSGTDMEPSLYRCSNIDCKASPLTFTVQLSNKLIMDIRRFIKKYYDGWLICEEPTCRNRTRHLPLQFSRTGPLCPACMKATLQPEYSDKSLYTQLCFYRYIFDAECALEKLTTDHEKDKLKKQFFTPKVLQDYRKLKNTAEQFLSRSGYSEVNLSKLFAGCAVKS
Briefly: DNA-dependent DNA polymerase activity. It is filed as biochemical. The note with it: DNA Pol α. How it is done: (§1) to the method described previously 1. A 25 nM solution of RSV MTase-CTD protein or RSV L+P complex was incubated with 0.7 µM or 1.8 µM purified synthetic RNA 5’-Gppp […]
(§2) […] (RSV9) for the MTase-CTD or L+P complex, respectively; 2 µM or 0.17 µM S-adenosyl methionine (SAM) for the MTase-CTD or L–P complex, respectively; and 0.1 µM or 0.8 µM 3H-SAM (Perkin Elmer) for the MTase-CTD or L–P complex, respectively; in 50 mM Tris-HCl pH 8.0. Compounds, previously dissolved in DMSO were added at a final concentration of 50 µM or 200 µM. After 3 h incubation at 30°C, reactions were quenched by a 20-fold dilution in ice cold water. Samples were transferred to DEAE filtermats (Perkin Elmer) using a Filtermat Harvester (Packard Instruments). The RNA-retaining mats were washed twice with 10 mM ammonium formate pH 8.0, twice with water and once with ethanol. They were then soaked with scintillation fluid (Perkin Elmer), and 3H-methyl transfer to the RNA substrates was determined using a Wallac MicroBeta TriLux Liquid Scintillation Counter.
(§3) Cellular polymerase assays
(§4) DNA-dependant DNA polymerase (DdDp) activity
(§5) Human DNA polymerases alpha (CHIMERx) at 5 U/ml, beta (CHIMERx) at 0.5 U/ml and gamma (Abcam) at 0.1 mg/ml were incubated with the tested inhibitors at specified concentrations, and a reaction mix composed of 62 µg/ml activated calf thymus DNA, dGTP (2 µM), dATP (2 µM), dCTP (2 µM), [ 3H]dTTP (0.05 µCi/µl), 0.1 mg/ml BSA and a buffer composed of Tris-HCl pH 8 (50 mM), MgCl 2 (5 mM), KCl (60 mM), and DTT (4 mM.) in a total volume of 50 µl. After 2 hours incubation at 30°C, reaction was terminated by addition of 60 µl of a chilled stop solution composed of 20% (w/v) TCA with 0.5 mM ATP. […] Radioactivity was measured via liquid scintillation counting (MicroScint-20, 40µl) on a TriLux apparatus. […]
(§6) The RNA transcription activity of human mitochondrial RNA polymerase (POLRMT) was measured by the incorporation of radioactively labeled nucleotides by POLRMT into acid-insoluble RNA products as described previously 2. […]

The target in assay [2] is T2, Human DNA polymerase beta (Homo sapiens, UniProt P06746).
T2 construct: purchased CHIMERx
Put plainly: DNA-dependent DNA polymerase activity. It is filed as biochemical. The note with it: DNA Pol β. How it is done: as §1, §2, §3, §4, §5, §6

The structures appear in SMILES notation.

Broadly, the IC50 is the concentration needed to halve the response being measured. A lower IC50 goes with greater potency in that assay. As for `COc1cc(C(=O)NC[C@](O)(c2cc(C(C)(C)O)c(F)c(-c3ccc(F)cc3)n2)C(F)(F)F)cc2cc(C)nnc12` [JNJ-8003], the IC50 in assay [1] and in assay [2] was over 100 µM throughout.
